Data set [1] is described as follows: Nitric oxide scavenging assay (nitroprusside, Griess reagent). The class given is biochemical. As to conditions: 10 mM nitroprusside, 90 min, read-out: NO IC50. As for the experimental part: Ethanol (10%) was used as a blank. Nitroprusside (50 μL) at a concentration of 10 mM was added to all the wells. The plates were incubated for 90 min at room temperature. After incubation, Griess reagent (100 μL) was added to all the wells, except for the color controls (negative controls) where instead distilled water was added. The absorbances were read at a wavelength of 546 nm using a BIO-TEK Power-Wave XS multiplate reader. From the absorbances an IC50 value was determined.

A short description of data set [2]: In vitro metabolism with human liver microsomes or cytosolic proteins and cofactors (UHPLC-QTOF-MS). The class given is in vitro ADME. As to conditions: for Level of verbascoside during incubation: 10 µM. As for the experimental part:
From the incubation mixture, 450 µL acetonitrile was added to 150 µL of the samples to stop the reaction at time points of 0, 10, 20, 40, and 60 min. The CYP incubation mixture contained 20% NADPH regenerating system, whereas the glucuronidation incubation mixture contained 0.5 mM UDP-glucuronic acid with 5 mM MgCl2. The sulfonation incubation mixture contained 10 µM PAPS, […], and 500 µg cytosolic protein instead of microsomes, and the methylation incubation mixture contained 0.5 mM S-adenosylmethionine, 5 mM MgCl2, and 500 µg cytosolic protein instead of microsomes. […] The hydrolysis reaction was studied with an incubation mixture that contained 400 µg microsomal protein, or 500 µg cytosolic proteins, and 5 mM MgCl2. A sample with the absence of any enzyme was considered as the blank sample. After stopping the reactions, the samples were centrifuged for 20 min at 10,000× g and stored at −80 °C for analysis by the UHPLC-QTOF-MS system (Agilent Technologies, Waldbronn, Karlsruhe, Germany), which consisted of a 1290 LC system, a Jetstream ESI source, and a 6540 UHD accurate mass quadrupole time-of-flight (QTOF) mass spectrometry. The sample tray was kept at 4 °C during these analyses. […] Two microliters of sample were injected onto a column (Zorbax Eclipse XDB-C8, 2.1 × 100mm, 1.8 µm, Agilent Technologies, Palo Alto, CA, USA) that was kept at 50 °C. Mobile phases, delivered at 0.4 mL/min, consisted of water (eluent A) and methanol (eluent B), both containing 0.1% (v/v) of formic acid. The gradient employed was as follows: 2%→100% B (0–10 min); 100% B (10–14.5 min); 100%→2% B (14.5–14.51 min); and 2% B (14.51–16.50 min).
A Jetstream ESI source, operated in negative ionization mode, used the following conditions: drying gas temperature 325 °C and a flow of 10 L/min, sheath gas temperature 350 °C and a flow of 11 L/min, nebulizer pressure 45 psi, capillary voltage 3500 V, nozzle voltage 1000 V, fragmentary voltage 100 V, and skimmer 45 V. Nitrogen was used as the instrument gas. For data acquisition, a 2 GHz extended dynamic range mode was used from m/z 20 to m/z 1600. Data were collected in the centroid mode at an acquisition rate of 1.67 spectra/s with an abundance threshold of 150. The TOF was calibrated on a daily basis and subsequently operated at a high accuracy (<2 ppm). Continuous mass axis calibration was performed by monitoring two reference ions from an infusion solution throughout the runs. The reference ions were m/z 112.985587 and m/z 966.000725. Identification of the metabolites found in the treatments was based on accurate mass and isotope information (i.e., ratios, abundances, and spacing). The software for the identification of metabolites used was MassHunter Metabolite ID B.04.00 (Agilent Technologies, Santa Clara, CA, USA).

The test system of data set [3] is peripheral blood mononuclear cells (PBMC). Kind of data set: Cellular antiproliferative activity (PrestoBlue). The following applies: 48 h, read-out: Peripheral Blood Mononuclear Cell (PBMC) IC50. The class given is cell-based, human. How it is done:
(2012) was performed. PBMC isolation and testing was approved by the Ethics Committee of the Department of Natural and Agricultural Sciences, University of Pretoria, Pretoria (Doc nr: EC120411-046; 17.05.2012). Briefly, peripheral blood mononuclear cells were isolated from blood that was freshly donated on the same day at the Student Clinic at the University of Pretoria. Mononuclear cells were isolated by centrifugation over Ficoll-Hypaque, a density gradient solution, with a density gradient of 1.07 g/mL. A layer of fresh heparinized venous blood was layered on the Ficoll-Hypaque at a ratio of 1:1 with supplemented RPMI 1640 media and then subjected to centrifugation at 3000 rpm for 30 min. Through centrifugation, the whole blood sample was separated into its different layers. […] The cells were counted and seeded in 96-well plates with a cell density of 10,000 cells/mL. The following formula was used to adjust the cell concentrations (Equation 1): (1) Concentration of the cells=Cells counted/number of blocks counted×10000.
The HepG2 cell line was seeded with a concentration of 1 × 10^5 cells/well. […] The absorbance was read at 490 nm with a reference wavelength of 690 nm using a BIO-TEK Power-Wave XS multiwell plate reader. The assay was performed in triplicate, and the mean IC50 values were calculated.

Read-outs that look alike come from different tables or passages of the source. Bounds are passed on as bounds.

With `C[C@@H]1O[C@@H](O[C@@H]2[C@@H](O)[C@H](OCCc3ccc(O)c(O)c3)O[C@H](CO)[C@H]2OC(=O)/C=C/c2ccc(O)c(O)c2)[C@H](O)[C@H](O)[C@H]1O` [Verbascoside], the IC50 was 382 ± 4.15 µM in data set [1]; 170 ± 3.73 µM in data set [3]; more than 100 µM in data set [3] (Homo sapiens, PBMC). Also, the “Level of verbascoside during incubation” value in data set [2] (human liver cytosolic protein, PAPS, up to 60 min) was “decreased”; in data set [2] (human liver cytosolic protein, S-adenosylmethionine, up to 60 min), “decreased”; in data set [2] (human liver microsomes, NADPH oxidation incubation), “no decrease”; in data set [2] (human liver microsomes, UDP-glucuronic acid, up to 60 min), “decreased”; in data set [2] (hydrolysis incubation, microsomal or cytosolic protein without cofactor), “no decrease”. Also, the Metabolites formed result in data set [2] (PAPS incubation, levels increased up to 20 min) is given as “three different sulphate conjugates”; in data set [2] (S-adenosylmethionine incubation, levels increased up to 60 min), “five different methylated conjugates”; in data set [2] (UDP-glucuronic acid incubation with human liver microsomes), “No glucuronide conjugate”.

The record behind these values is article PMC6600574 (Molecules, 2019).
